The source of these data is US8835462B2, “Macrocyclic picolinamides as fungicides” (Dow AgroSciences LLC, priority 2012, dated 2014).

Series [1] relates to Puccinia triticina. The experiment in a line: Fungicide mobility (dropline mobility test), wheat brown rust (PUCCRT). It is filed as in vivo. The following applies: 1 ug/leaf, disease-free zone as percent of distance from marked line to leaf tip; for Dropline Mobility Test PUCCRT 1 DPM: 1 Day Protectant Mobility; for Dropline Mobility Test PUCCRT 3 DCM: 3 Day Curative Mobility. The method, then: Evaluation of Fungicide Mobility: Wheat Brown Rust (Puccinia Triticina; Synonym: Puccinia recondita f. sp. Tritici; Bayer Code PUCCRT):
“Yuma” wheat seedlings were used in the test. One mg of compound was dissolved in 9 μl of EC blank (emulsifiable concentrate) and 500 μl of acetone. Acetone was then evaporated overnight by leaving the vial open in a fume hood. Two milliliters of water containing 110 ppm Triton X-100 was added to each vial to prepare application solutions. A […] drop of formulated material was applied to a marked line on the adaxial surface 5 cm from the leaf tip of the primary leaves. The primary leaves were kept in a horizontal position. Each treatment had 6 replicates. Plants were inoculated with PUCCRT 1-day after (1DPM) or 3-day prior to (3DCM) compound applications. When rust was fully expressed on primary leaves on control plants, the zone of treated leaves that was disease-free in the acropetal direction was measured with a ruler and converted to percent of the distance from marked line to leaf tip.

For series [2], the system named is Mycosphaerella graminicola; Anamorph: Septoria tritici. The experiment in a line: Leaf blotch of wheat (SEPTTR) fungicidal activity on wheat seedlings. Format: in vivo. The following applies: Zymoseptoria tritici. The method, then: Evaluation of Fungicidal Activity: Leaf Blotch of Wheat (Mycosphaerella Graminicola; Anamorph: Septoria tritici; Bayer Code […]) Technical grades of materials were dissolved in acetone, which were then mixed with nine volumes of water containing 110 ppm Triton X-100. The fungicide solutions were applied onto wheat seedlings using an automated booth sprayer to run-off. All sprayed plants were allowed to air dry prior to further handling. Wheat plants (variety Yuma) were grown from seed in a greenhouse in 50% mineral soil/50% soil-less Metro mix until the first leaf was fully emerged, with 7-10 seedlings per pot. These plants were inoculated with an aqueous spore suspension of Septoria tritici either prior to or after fungicide treatments. After inoculation the plants were kept in 100% relative humidity (one day in a dark dew chamber followed by two to three days in a lighted dew chamber at 20° C.) to permit spores to germinate and infect the leaf. The plants were then transferred to a greenhouse set at 20° C. for disease to develop. When disease symptoms were fully expressed on the 1st leaves of untreated plants, infection levels were assessed on a scale of 0 to 100 percent disease severity. Percent disease control was calculated using the ratio of disease severity on treated plants relative to untreated plants.

The test system of series [3] is Puccinia triticina. The experiment in a line: Wheat brown rust (PUCCRT) fungicidal activity on wheat seedlings. It is filed as in vivo. The method, then: Technical grades of materials were dissolved in acetone, which were then mixed with nine volumes of water containing 110 ppm Triton X-100. The fungicide solutions were applied onto wheat seedlings using an automated booth sprayer to run-off. All sprayed plants were allowed to air dry prior to further handling. Wheat plants (variety Yuma) were grown from seed in a greenhouse in 50% mineral soil/50% soil-less Metro mix until the first leaf was fully emerged, with 7-10 seedlings per pot. These plants were inoculated with an aqueous spore suspension of Septoria tritici either prior to or after fungicide treatments. After inoculation the plants were kept in 100% relative humidity (one day in a dark dew chamber followed by two to three days in a lighted dew chamber at 20° C.) to permit spores to germinate and infect the leaf. The plants were then transferred to a greenhouse set at 20° C. for disease to develop. When disease symptoms were fully expressed on the 1st leaves of untreated plants, infection levels were assessed on a scale of 0 to 100 percent disease severity. Percent disease control was calculated using the ratio of disease severity on treated plants relative to untreated plants. Evaluation of Fungicidal Activity: Wheat Brown Rust (Puccinia triticina; Synonym: Puccinia recondita f. sp. tritici; Bayer Code PUCCRT) Wheat plants (variety Yuma) were grown from seed in a greenhouse in 50% mineral soil/50% soil-less Metro mix until the first leaf was fully emerged, with 7-10 seedlings per pot. These plants were inoculated with an aqueous spore suspension of Puccinia triticina either prior to or after fungicide treatments. After inoculation the plants were kept in a dark dew room at 22° C. with 100% relative humidity overnight to permit spores to germinate and infect the leaf. The plants were then transferred to a greenhouse set at 24° C. for disease to develop. Fungicide formulation, application and disease assessment followed the procedures as described in the Example A.

Setting [4] is: 24 h, 1 Day Protectant, read-out: Disease Control SEPTTR 1 DP.
The mark [5] stands for this setting: 72 h, 3 Day Curative, read-out: Disease Control SEPTTR 3 DC.
The mark [6] stands for this setting: 24 h, 1 Day Protectant, read-out: Disease Control PUCCRT 1 DP.
Where [7] appears, read: 72 h, 3 Day Curative, read-out: Disease Control PUCCRT 3 DC.

Each structure is given as a SMILES string. Like-named read-outs stand apart in the source and are kept apart here.

`CCCO[C@@H]1[C@@H](Cc2ccccc2)COC[C@H](NC(=O)c2nccc(OC)c2O)C(=O)O[C@H]1C` [Compound 17] returned a melting point of 102 to 104 °C. In series [1], the “Dropline Mobility Test PUCCRT 1 DPM” value is reported as “B (More than 0-Less than 80)” and the “Dropline Mobility Test PUCCRT 3 DCM” value is listed as “B (More than 0-Less than 80)”. Further, in series [2] (setting [4]), the pest or weed control at 100 ppm lay in the range of 80 to 100%. Moreover, in series [2] (setting [5]), the pest or weed control at 100 ppm was 80 to 100%. Moreover, the pest or weed control at 100 ppm in series [3] (setting [6]) is 80 to 100%. Also, the pest or weed control at 100 ppm in series [3] (setting [7]) was 80 to 100%.

For `CCCC(C)O[C@@H]1[C@@H](Cc2ccccc2)COC[C@H](NC(=O)c2nccc(OC)c2O)C(=O)O[C@H]1C` (some centres unmarked) [Compound 19], the melting point fell in the range of 52 to 56 °C. In addition, the “Dropline Mobility Test PUCCRT 1 DPM” value in series [1] is listed as “B (More than 0-Less than 80)”. Moreover, in series [2] (setting [4]), the pest or weed control at 100 ppm was in the range of 80 to 100%. Moreover, the pest or weed control at 100 ppm in series [2] (setting [5]) fell in the range of 80 to 100%. Further, the pest or weed control at 100 ppm in series [3] (setting [6]) lay within 80 to 100%. Further, the pest or weed control at 100 ppm in series [3] (setting [7]) was 80 to 100%.

Take `CCCCCO[C@@H]1[C@@H](Cc2ccccc2)COC[C@H](NC(=O)c2nccc(OC)c2O)C(=O)O[C@H]1C` [Compound 21]: the melting point fell in the range of 51 to 56 °C. Also, the “Dropline Mobility Test PUCCRT 1 DPM” value in series [1] is “B (More than 0-Less than 80)”. Besides, in series [2] (setting [4]), the pest or weed control at 100 ppm was 0 to 80%. Also, in series [2] (setting [5]), the pest or weed control at 100 ppm fell in the range of 0 to 80%. The pest or weed control at 100 ppm in series [3] (setting [6]) is 80 to 100%. Besides, in series [3] (setting [7]), the pest or weed control at 100 ppm lay in the range of 0 to 80%.

The compound `COc1ccnc(C(=O)N[C@H]2COC[C@H](Cc3ccccc3)[C@@H](OC)[C@H](C)OC2=O)c1O` [Compound 32] returned a melting point of 57 to 70 °C. In series [1], the “Dropline Mobility Test PUCCRT 1 DPM” value is on record as “B (More than 0-Less than 80)” and the “Dropline Mobility Test PUCCRT 3 DCM” value is “B (More than 0-Less than 80)”. Moreover, the pest or weed control at 100 ppm in series [2] (setting [4]) fell in the range of 0 to 80%. In series [2] (setting [5]), the pest or weed control at 100 ppm lay in the range of 80 to 100%. Also, in series [3] (setting [6]), the pest or weed control at 100 ppm lay within 80 to 100%. Also, in series [3] (setting [7]), the pest or weed control at 100 ppm is 0 to 80%.

As a reminder, the melting point is the temperature of the solid-liquid transition.
